Legend:
R6/2 transgenic mice = assay: Neuropathology of R6/2 transgenic mice; format: in vivo, mouse
Text: FIG. 7. Amelioration of neuronal damage of 13 week-old R6/2 mice by 8R10Q peptide. Panel A: Micrographs of the Nissl stain sections of cortex (CTX) of WT and R6/2 mice. The cortex and its thickness are highlighted by the dashed lines and red solid lines, respectively. Panel B: Quantitation of the cortical thickness. Note the decrease in cortical thickness in R6/2 mice which was reversed by the 8R10Q. […]: Micrographs (panel D) and (panel F) show the corresponding quantitation of the Nissl stained sections of the cortex and striatum, respectively. Note the decrease in the number of neurons, which was reversed by 8R10Q. N=3/group, each bar represents the average of 5 sections. Statistical analysis performed with one way ANOVA, *p<0.05; ***p<0.001, ns: not significant.
FIG. 8. Decrease in mHtt aggregates and glial pathology in 13-week-old R6/2 mice by 8R10Q peptide treatment. Panel A: Micrographs and corresponding quantitation (panel B) of the immunostained sections of cortex (CTX) and striatum with EM48 antibody. The brown dots show the mHtt aggregates. The left subpanels of panel B show the quantitative data with respect to the total area occupied by the aggregates, and the right, the intensity of individual aggregates. Panel C: Photographs of the immunofluorescent-stained sections of the cortex of R6/2 mice with anti-GFAP antibody. […] Panel E: Micrographs of the immunostained sections of the cortex (CTX) and striatum of WT and R6/2 mice with anti-Iba1 antibody. […] N=3/group. Each bar represented an average of 15 sections/mouse group. Statistics were performed with Student's t test for panels B and D, but with one way ANOVA, *p<0.05; **p<0.01; ***p<0.001, ns: not significant.
To correlate the beneficial effect with the aggregates of mHtt, immunohistochemistry was performed to calculate the areas occupied by the aggregates per unit area (150 μm^2). The method was selected because the frequent clustering of the aggregates into conglomerates rendered an accurate count of the aggregate number very difficult.

[1] = Solubility of therapeutic peptides; format: physicochemical
Procedure: In this study, the rational design was tested for HD. Several bipartite therapeutic peptides containing 8 consecutive arginines (8R) attached to a stretch of consecutive glutamines (polyQ) were synthesized and their biological activity of decreasing the aggregation propensity of the mHtt protein was investigated. The length of the polyQ of these bipartite peptides was 5 (8R5Q), 10 (8R10Q), 15 (8R15Q) or 20 (8R20Q) (Table 2).

109QmHtt aggregates = assay: TIRF microscopy of mHtt aggregates in Neuro2a cells; format: cell-based; settings: Neuro2a cells expressing 109QmHtt
Procedure: FIG. 3. Diagrams showing the co-localization of tested bipartite peptides with the 109QmHtt aggregates. Panel A: Structure of TAMRA-labeled 8R10Q used in this study. Panel B: Epifluorescence micrographs of Neuro2a cells expressing 109QmHtt treated with TAMRA-8R10Q (8R10Q) at various time points. Note the co-localization of 8R10Q and 109QmHttGFP aggregates (GFP) from 8-24 hours (arrows). Scale bar: 10 μm. Panel C: TIRF micrographs of the Neuro2a expressing 109QmHtt treated with water or peptides as indicated at various time points. Note the decrease in aggregate size in 8R10Q and 8R15Q-treated cells. Panel D: Quantitation of the size of individual aggregates in Neuro2a at 8 hours (left) and 24 hours (right) after peptide treatment. […] Panel E: Quantitation of the number of aggregates in 20 Neuro2a cells at 12 hours (left) and 24 hours (right) after peptide treatment. Both the 8R10Q and 8R15Q increased the number of aggregates. Statistics performed with one way ANOVA. **p<0.01; ***p<0.001.
To probe into the details of the effect of peptide on the mHtt aggregates, the parameters of the mHtt aggregates were visualized and measured using the Total Internal Reflection Fluorescence (TIRF) microscopy. […] The number of aggregates in 20 cells was also calculated. 8R10Q and 8R15Q increased the number of the aggregates by 4-5 fold (FIG. 3, panel E).

H-RRRRRRRRWDQQQQQQQQQQ-NH2 [Peptide 8R10Q, NH2-(R)8-W-D-(Q)10-CONH2]
cortical thickness (R6/2 transgenic mice; 13 week-old R6/2 mice): prevented cortical thinning | loss of neurons in cortex and striatum (R6/2 transgenic mice; R6/2 mice, intranasal): significantly prevented | intensity of mHtt aggregates (R6/2 transgenic mice; cortex and striatum): significantly decreased | tau signals (R6/2 transgenic mice; cortex and striatum of R6/2 mice): significantly enhanced | decrease in areas of mHtt aggregates (R6/2 transgenic mice; cortex and striatum, vs PBS, EM48 immunohistochemistry): ~60% | numbers of GFAP-positive astrocytes (R6/2 transgenic mice; cortex of R6/2 mice): significant decrease | numbers of Iba-1-positive microglia (R6/2 transgenic mice; cortex of R6/2 mice): significant decrease | Solubility (DMEM/10% FBS) ([1]; DMEM/10% FBS): Soluble | solubility in water or culture medium ([1]; water or culture medium): highly soluble | average size of the aggregates (109QmHtt aggregates): 0.3 μm^2

— patent publication US12590130B2, “Bipartite molecules and uses thereof in treating diseases associated with abnormal protein aggregates” (ACADEMIA SINICA, priority 2014, dated 2026)
